Activity calls are given as the source filed them.
Experiments:
Fatty acid synthase [1] = molecular target: T1, Fatty acid synthase (Homo sapiens, UniProt P49327); test: inhibition of human FAS-TE enzyme activity – biochemical, kinetic fluorescence intensity, dose response (AID 624326); format: functional;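 note: rate of fluorescence rise from hydrolysis of a fluorogenic O-methyl fluorescein ester substrate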
INS1 = test: INS-1E survival protection against cytokine death – cell-based, luminescence, retest, dose response (AID 449756); format: functional; settings: Rattus norvegicus;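 note: cell death triggered by IL-1 beta plus TNF-alpha plus IFN-gamma mixture; protective hits raise ATP signal compared with cytokine alone wells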
[2] = DRD fibroblast viability loss – cell-based, non-viral oncogenic, luminescence, dose response (AID 1934); format: functional; settings: Homo sapiens
BJ [3] = test: cells; format: functional, cell-based; settings: Homo sapiens
CHO = CHO cell viability loss, potency – luminescence, cytotoxicity control for TLR9-MyD88 binding inhibitor project, dose response (AID 588339); format: functional, cell-based, hamster; settings: Cricetulus griseus;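 note: CHO cells stably coexpressing TLR9 and MyD88 fusions from primary screen; compound exposure lasted 48 hours before viability readout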
Vero = test: viability of Vero cells under compound – cytotoxicity control for flavivirus capping enzyme inhibitors (AID 588742); format: functional; settings: Chlorocebus sabaeus
Genome polyprotein = Genome polyprotein (dengue virus type 2, UniProt P29990); test: flavivirus cap methylation enzyme inhibition – biochemical, confirmation dose response, primary screen (AID 588689); format: functional
[4] = molecular target: T2, Replicative DNA helicase DnaB (Mycobacterium tuberculosis, UniProt P9WMR3); test: DnaB intein splicing inhibitors, dose response, biochemical, cell-free fluorescence (AID 449749); format: functional
T2 sequence (P9WMR3 whole entry): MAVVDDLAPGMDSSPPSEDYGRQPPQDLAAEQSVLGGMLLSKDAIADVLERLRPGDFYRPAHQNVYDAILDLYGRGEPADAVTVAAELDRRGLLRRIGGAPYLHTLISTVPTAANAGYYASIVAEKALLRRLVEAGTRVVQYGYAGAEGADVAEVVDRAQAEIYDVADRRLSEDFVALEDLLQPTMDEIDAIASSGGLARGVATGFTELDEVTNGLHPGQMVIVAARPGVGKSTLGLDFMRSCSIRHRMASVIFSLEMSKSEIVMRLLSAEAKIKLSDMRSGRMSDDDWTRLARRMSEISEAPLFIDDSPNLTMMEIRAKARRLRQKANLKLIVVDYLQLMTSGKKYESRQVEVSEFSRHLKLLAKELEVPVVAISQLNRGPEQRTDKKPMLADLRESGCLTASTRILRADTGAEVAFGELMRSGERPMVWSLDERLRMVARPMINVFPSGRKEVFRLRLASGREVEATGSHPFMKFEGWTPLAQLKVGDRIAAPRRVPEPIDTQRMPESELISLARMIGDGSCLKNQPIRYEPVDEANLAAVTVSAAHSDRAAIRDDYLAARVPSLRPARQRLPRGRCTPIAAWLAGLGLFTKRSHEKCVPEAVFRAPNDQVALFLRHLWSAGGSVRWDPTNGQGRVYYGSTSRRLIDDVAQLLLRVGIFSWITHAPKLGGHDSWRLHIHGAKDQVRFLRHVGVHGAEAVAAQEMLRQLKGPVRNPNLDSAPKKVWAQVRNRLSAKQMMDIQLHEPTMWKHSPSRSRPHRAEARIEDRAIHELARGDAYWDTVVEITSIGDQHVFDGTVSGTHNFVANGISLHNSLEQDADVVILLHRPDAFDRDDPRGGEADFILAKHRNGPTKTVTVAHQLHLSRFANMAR

[5] = Luminescence Cell-Based Dose Confirmation HTS to Identify Inhibitors of Platelet Dense Granule Release. [Related pubchem assays: 1663 (Primary HTS), 1678 (Summary of Project)]; format: functional
[6] = Fluorescence-based cell-based high throughput dose response assay for inhibitors of the interaction of nucleotide-binding oligomerization domain containing 2 (NOD2) and the receptor-interacting serine-threonine kinase 2 (RIPK2).; format: functional; settings: Homo sapiens
BJ [7] = test: BJ-TERT-LT-ST fibroblast viability loss – cell-based, RAS-independent, luminescence, dose response (AID 1935); format: functional; settings: Homo sapiens;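 note: BJ fibroblasts immortalized with TERT plus LT and ST oncogenes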
Beta Lactamase [8] = molecular target: T3, Beta Lactamase (Pseudomonas aeruginosa, UniProt Q932Y6); test: BLA reporter interference, concentration series – BLA reporter cells, FRET fluorescence, artefact control for NOD2-RIPK2 interaction inhibitor project, dose response (AID 651552); format: functional, cell-based
T3 sequence (Q932Y6 whole entry): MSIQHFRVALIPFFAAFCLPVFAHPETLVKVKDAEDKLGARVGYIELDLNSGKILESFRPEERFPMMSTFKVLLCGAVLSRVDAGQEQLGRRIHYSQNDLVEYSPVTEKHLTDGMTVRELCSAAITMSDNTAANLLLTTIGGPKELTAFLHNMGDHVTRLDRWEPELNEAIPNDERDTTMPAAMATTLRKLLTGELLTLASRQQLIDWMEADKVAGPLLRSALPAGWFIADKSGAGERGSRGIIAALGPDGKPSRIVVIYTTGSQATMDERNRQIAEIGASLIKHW

Large T antigen = Large T antigen (Simian virus 40, UniProt P03070); format: functional, Betapolyomavirus macacae;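 note: Confirmatory-stage PubChem screen for compounds that inhibit SV40 T antigen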
Sequence of Large T antigen (P03070 whole entry): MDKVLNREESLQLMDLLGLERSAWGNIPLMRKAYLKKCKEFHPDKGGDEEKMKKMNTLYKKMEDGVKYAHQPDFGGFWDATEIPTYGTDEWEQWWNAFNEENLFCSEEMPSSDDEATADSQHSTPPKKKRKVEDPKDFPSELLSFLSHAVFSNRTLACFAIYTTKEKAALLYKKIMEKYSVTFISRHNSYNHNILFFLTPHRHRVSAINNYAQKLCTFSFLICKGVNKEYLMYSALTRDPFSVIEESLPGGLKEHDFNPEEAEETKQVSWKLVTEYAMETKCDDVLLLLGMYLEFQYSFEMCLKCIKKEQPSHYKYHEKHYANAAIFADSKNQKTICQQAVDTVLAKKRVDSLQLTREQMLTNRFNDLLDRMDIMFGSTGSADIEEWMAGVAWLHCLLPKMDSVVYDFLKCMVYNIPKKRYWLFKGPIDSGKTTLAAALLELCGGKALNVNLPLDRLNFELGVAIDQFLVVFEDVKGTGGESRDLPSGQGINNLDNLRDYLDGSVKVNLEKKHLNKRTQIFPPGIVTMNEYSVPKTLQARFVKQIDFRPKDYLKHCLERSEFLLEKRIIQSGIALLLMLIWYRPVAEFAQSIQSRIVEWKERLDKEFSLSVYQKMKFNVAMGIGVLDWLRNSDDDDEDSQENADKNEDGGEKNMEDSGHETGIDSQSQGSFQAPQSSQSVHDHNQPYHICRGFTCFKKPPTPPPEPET

BJ [9] = test: growth inhibition of engineered Ras-driven BJ cells – cell-based, alamar blue fluorescence, cherrypicked samples, dose response (AID 2631); format: functional; settings: Homo sapiens;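 note: confirmatory dose-response assay in RAS-dependent BJ fibroblasts engineered with TERT, LT and ST, with cytotoxicity read by fluorescence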
BJ [10] = test: BJ-TERT fibroblast viability loss – cell-based, RAS-independent, luminescence, dose response (AID 1933); format: functional; settings: Homo sapiens
Beta Lactamase [11] = molecular target: T3, Beta Lactamase; test: BLA reporter interference, concentration series – BLA reporter cells, FRET fluorescence, artefact control for TLR9-MyD88 binding inhibitor project, dose response (AID 588341); format: cell-based;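 note: cell based assay in CHO-K1 cells stably expressing beta-lactamase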
Protein RecA = molecular target: T4, Protein RecA (Mycobacterium tuberculosis, UniProt P9WHJ3); test: Fluorescence Cell-Free Homogeneous Dose Retest to Identify Inhibitors of RecA-Intein Splicing Activity. [Related pubchem assays (depositor defined):AID2097, AID2223, AID489010, AID492950]; format: functional
T4 sequence (P9WHJ3 whole entry): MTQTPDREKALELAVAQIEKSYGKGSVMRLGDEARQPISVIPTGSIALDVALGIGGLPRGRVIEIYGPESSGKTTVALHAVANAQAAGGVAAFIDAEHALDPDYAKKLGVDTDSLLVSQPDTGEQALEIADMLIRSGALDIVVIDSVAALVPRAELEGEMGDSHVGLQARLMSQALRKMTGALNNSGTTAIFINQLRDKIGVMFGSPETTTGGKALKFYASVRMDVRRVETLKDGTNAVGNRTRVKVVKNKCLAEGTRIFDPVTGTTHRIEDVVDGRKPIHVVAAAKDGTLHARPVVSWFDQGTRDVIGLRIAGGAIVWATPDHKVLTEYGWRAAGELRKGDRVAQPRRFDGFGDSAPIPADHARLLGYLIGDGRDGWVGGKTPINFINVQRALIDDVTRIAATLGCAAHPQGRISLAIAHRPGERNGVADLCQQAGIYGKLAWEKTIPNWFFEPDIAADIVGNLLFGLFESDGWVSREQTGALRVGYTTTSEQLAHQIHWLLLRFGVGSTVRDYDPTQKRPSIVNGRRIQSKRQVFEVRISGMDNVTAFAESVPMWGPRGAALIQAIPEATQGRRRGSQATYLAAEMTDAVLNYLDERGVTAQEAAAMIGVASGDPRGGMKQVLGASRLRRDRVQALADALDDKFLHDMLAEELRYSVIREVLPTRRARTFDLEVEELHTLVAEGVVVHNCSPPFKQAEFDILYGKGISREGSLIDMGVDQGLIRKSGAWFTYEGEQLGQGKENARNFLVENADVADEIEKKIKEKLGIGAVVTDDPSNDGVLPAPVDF

[12] = molecular target: Luciferin 4-monooxygenase (Photinus pyralis, UniProt P08659); test: inhibition of purified Photinus pyralis luciferase – biochemical, luminescence, dose response (AID 1891)
Sequence of Luciferin 4-monooxygenase (P08659 whole entry): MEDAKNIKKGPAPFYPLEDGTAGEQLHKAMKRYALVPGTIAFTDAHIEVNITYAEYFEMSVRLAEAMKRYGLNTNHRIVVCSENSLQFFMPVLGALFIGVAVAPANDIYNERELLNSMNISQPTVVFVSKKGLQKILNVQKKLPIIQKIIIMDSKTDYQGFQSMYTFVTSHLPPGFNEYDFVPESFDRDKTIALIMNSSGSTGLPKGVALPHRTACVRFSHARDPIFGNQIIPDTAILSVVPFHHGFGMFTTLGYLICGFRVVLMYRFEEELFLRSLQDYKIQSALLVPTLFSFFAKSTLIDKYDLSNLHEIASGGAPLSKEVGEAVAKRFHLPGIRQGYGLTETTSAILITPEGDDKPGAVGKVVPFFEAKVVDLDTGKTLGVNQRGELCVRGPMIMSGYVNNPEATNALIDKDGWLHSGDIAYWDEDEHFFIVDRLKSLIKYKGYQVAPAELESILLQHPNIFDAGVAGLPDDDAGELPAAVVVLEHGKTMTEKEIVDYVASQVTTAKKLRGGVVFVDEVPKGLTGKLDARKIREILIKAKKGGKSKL

Fatty acid synthase [13] = molecular target: T1, Fatty acid synthase; test: inhibition of human FAS-TE enzyme activity – biochemical, endpoint fluorescence intensity, uHTS hits, dose response (AID 624327); format: functional;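 note: fluorescence from hydrolysis of an O-methyl fluorescein acyl ester substrate by the enzyme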
[14] = molecular target: Mitochondrial peptide methionine sulfoxide reductase (Bos taurus, UniProt P54149); format: functional;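 note: absorbance read-out, biochemical high-throughput dose-response screen for MsrA inhibitors, confirmatory; recombinant bovine MsrA coupled to E. coli TrxB with NADPH and selenocystamine; potency is for inhibitors of MsrA activity on DMSO substrate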
Sequence of Mitochondrial peptide methionine sulfoxide reductase (P54149 whole entry): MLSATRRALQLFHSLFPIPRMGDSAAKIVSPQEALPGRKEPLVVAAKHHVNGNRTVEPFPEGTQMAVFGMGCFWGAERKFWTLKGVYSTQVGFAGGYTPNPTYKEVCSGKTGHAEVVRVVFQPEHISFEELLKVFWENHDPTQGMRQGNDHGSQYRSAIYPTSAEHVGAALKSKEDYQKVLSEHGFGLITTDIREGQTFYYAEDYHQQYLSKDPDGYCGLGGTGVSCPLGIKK

[15] = viability of PTEN-deleted HCT116 cells – cell-based, HCT116 PTEN knockout, dose response (AID 1047); format: functional;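 note: HCT116 colon tumor cells with PTEN knocked out; cells exposed to compound for 60 hours before readout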
Orexin receptor type 2 [16] = molecular target: T5, Orexin receptor type 2 (Homo sapiens, UniProt O43614); test: Counterscreen assay for antagonists of the orexin 1 receptor (OX1R; HCRTR1): Homogeneous Time Resolved Fluorescence (HTRF)-based cell-based dose response assay for antagonists of the orexin 2 receptor (OX2R; HCRTR2), run by assay provider.; format: functional
T5 sequence (O43614 whole entry): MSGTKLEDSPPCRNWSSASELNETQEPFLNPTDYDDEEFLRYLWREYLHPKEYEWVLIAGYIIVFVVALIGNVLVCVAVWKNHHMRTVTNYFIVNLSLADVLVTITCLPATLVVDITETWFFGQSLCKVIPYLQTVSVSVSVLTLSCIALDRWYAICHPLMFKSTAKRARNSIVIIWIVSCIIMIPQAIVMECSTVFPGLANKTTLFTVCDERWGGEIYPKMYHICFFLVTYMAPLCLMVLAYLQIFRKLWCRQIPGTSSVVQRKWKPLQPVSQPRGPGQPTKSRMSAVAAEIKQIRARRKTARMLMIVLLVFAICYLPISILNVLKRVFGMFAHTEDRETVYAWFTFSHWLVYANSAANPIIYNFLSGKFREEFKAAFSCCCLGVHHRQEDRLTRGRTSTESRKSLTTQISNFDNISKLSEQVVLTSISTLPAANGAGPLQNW

[17] = viability of HCT116 lacking mutant beta-catenin – cell-based, human colon tumor, dose response (AID 1045); format: functional;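 note: HCT116 colon tumor cells with beta catenin knocked out; cells exposed to compound for 60 hours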
Orexin receptor type 2 [18] = molecular target: T5, Orexin receptor type 2; test: Counterscreen assay for antagonists of the orexin 1 receptor (OX1R; HCRTR1): Fluorescence-based cell-based dose response assay for antagonists of the orexin 2 receptor (OX2R; HCRTR2), run by assay provider.; format: functional

T1 sequence (P49327 whole entry): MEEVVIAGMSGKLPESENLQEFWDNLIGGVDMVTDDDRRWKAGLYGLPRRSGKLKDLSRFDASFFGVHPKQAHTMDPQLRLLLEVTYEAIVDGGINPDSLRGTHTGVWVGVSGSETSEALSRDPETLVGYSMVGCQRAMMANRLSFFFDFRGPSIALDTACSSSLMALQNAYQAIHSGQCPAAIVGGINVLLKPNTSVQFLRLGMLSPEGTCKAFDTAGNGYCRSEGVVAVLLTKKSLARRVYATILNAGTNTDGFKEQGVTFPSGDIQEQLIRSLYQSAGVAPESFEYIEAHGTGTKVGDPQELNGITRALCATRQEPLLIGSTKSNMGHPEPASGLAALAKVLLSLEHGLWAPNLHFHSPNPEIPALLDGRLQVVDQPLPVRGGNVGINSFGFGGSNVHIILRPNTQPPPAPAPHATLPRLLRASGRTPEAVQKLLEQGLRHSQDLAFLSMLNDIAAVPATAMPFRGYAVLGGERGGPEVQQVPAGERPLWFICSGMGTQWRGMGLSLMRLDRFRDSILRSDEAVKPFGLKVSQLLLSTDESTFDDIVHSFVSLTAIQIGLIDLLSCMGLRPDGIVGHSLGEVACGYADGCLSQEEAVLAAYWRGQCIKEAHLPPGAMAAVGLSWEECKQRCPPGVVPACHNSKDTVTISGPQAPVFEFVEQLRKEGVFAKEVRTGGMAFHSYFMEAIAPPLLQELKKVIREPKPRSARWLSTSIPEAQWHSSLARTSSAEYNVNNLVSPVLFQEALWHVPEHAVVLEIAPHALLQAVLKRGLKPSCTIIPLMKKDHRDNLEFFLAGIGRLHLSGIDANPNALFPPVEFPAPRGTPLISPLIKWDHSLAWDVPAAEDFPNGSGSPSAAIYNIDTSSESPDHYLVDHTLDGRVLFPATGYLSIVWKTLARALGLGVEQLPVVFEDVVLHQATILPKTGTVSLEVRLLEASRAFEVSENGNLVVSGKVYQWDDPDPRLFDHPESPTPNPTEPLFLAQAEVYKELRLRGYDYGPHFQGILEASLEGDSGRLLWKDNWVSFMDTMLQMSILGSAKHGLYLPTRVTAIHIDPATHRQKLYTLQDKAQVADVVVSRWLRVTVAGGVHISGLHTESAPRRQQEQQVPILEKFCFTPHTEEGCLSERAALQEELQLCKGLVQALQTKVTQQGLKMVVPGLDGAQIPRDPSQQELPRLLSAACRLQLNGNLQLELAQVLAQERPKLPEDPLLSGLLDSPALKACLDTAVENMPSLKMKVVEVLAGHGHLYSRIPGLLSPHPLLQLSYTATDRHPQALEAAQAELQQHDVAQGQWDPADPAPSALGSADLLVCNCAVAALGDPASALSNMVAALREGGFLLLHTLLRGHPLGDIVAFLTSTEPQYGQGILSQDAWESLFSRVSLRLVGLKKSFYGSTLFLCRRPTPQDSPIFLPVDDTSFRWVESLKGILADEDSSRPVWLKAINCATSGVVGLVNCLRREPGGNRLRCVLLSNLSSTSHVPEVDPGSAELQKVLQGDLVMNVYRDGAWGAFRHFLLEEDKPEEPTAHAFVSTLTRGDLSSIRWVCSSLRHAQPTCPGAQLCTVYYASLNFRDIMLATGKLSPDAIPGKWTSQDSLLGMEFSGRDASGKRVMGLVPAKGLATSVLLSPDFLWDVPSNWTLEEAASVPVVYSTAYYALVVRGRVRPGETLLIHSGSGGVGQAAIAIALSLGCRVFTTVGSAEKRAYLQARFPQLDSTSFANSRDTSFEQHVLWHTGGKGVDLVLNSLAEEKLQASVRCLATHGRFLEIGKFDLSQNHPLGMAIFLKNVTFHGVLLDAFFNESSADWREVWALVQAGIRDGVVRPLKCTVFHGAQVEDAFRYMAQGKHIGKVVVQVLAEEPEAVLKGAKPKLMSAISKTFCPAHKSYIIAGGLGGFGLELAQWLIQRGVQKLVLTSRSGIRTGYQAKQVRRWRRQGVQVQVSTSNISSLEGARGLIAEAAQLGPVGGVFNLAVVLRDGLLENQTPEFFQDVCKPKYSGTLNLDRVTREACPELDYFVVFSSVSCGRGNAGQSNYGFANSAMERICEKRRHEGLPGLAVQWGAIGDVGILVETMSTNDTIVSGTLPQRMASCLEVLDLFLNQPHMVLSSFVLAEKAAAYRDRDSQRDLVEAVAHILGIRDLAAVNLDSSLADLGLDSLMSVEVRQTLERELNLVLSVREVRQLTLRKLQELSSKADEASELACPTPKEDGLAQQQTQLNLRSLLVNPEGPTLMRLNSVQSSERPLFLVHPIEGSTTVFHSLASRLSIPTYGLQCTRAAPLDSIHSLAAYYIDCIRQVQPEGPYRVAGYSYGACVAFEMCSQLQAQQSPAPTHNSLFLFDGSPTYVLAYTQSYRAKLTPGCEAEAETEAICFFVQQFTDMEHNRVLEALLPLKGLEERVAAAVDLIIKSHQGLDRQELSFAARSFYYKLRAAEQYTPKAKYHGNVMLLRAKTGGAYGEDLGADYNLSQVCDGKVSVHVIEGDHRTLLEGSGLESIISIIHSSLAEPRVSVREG

O=[N+]([O-])c1c(Nc2ccc(O)cc2)cc(Cl)c2nonc12
> 112 µM (not active): EC50 [12]
active: IC50 (Fatty acid synthase [1]) 4.41 µM | AC50 (INS1) 5.23 µM | EC50 [2] 2.66 µM | IC50 (CHO) 1.13 µM | CC50 (Vero) 16.9 µM | IC50 (Genome polyprotein) 10.4 µM | AC50 [4] 1.1 µM | EC50 [5] 4.2 µM | IC50 [6] 0.969 µM | IC50 (Beta Lactamase [8]) 5.98 µM | IC50 (Large T antigen) 12.3 µM | EC50 (BJ [9]) 0.501 µM | IC50 (Beta Lactamase [11]) 6.38 µM | EC50 (Protein RecA) 0.926 µM | IC50 (Fatty acid synthase [13]) 5.26 µM
inconclusive: EC50 (BJ [3]) 5.3 µM | EC50 (BJ [7]) 3.96 µM | EC50 (BJ [10]) 1.92 µM

Cc1c(OCC(=O)N(C)C)ccc2c(-c3ccccc3)cc(=O)oc12
inactive: IC50 [14] 93.6 µM

O=C(c1ccco1)N1CCCC(c2nc(-c3ccc(S(=O)(=O)NCc4ccccc4)cc3)no2)C1 (centres undefined)
active: EC50 [15] 21.2 µM | IC50 (Orexin receptor type 2 [16]) 5.51 µM | EC50 [17] 18.6 µM
inactive: IC50 (Orexin receptor type 2 [18]) 39.3 µM

Reference: ChEMBL document CHEMBL1201862, “PubChem BioAssay data set” (2004)
